24 molecules from patent EP0558245A1, “Heterobicyclic compounds as antagogists of alpha-1 adrenergic and SHT1A receptors” (priority 1992, dated 1993) can be followed below.

Each structure is given as a SMILES string. Where two headings read alike, the source gives them in different places.

Data set [1] in a line: Acute toxicity in mice after intraperitoneal and oral administration. As to conditions: mouse, in vivo, female albino Swiss mice, mortality recorded 7 days after administration. As for the experimental part: Male Sprague Dawley rats [Crl: CD' BR] of 200-300 g b.w., female Albino Swiss mice [Crl: CD-1 (ICR) BR] 20-30 g b.w., and male Beagle dogs (10-12 kg b.w.) were obtained from Charles River, Italy and Nossan (Correzzana, Milan, Italy), respectively. Animals were housed with free access to food and water and maintained on forced light-dark cycle at 22-24°C until the day of experiments.
The acute toxicity of synthesized compounds was evaluated in female albino Swiss mice after intraperitoneal and oral administration. Four logarithmic scaled doses of the compounds were dissolved or suspended in 0.5% Methocel and administered in a volume of 10 ml/kg to groups of 4 mice/dose. Mortality was recorded 7 days after the administration. Data analysis: the LD₅₀ values and their fiducial limits were calculated according to the method of Weil (Biometrics, 8, 249, 1952).

Another data set concerns the target α₁ receptors. Put plainly: [3H]prazosin binding (α1 receptors), rat cerebral cortex membranes. As to conditions: rat cerebral cortex crude membranes, [3H]prazosin 0.35 nM, 25°C 30 min; read-out: Receptor Binding IC50 (nM) α1.
The next data set addresses T1, 5HT1A receptors (Rattus norvegicus, UniProt P19327).
T1 construct: Rat hippocampi were homogenized; from tissue; host or cells: rat hippocampus membranes
T1 sequence (P19327 1-422): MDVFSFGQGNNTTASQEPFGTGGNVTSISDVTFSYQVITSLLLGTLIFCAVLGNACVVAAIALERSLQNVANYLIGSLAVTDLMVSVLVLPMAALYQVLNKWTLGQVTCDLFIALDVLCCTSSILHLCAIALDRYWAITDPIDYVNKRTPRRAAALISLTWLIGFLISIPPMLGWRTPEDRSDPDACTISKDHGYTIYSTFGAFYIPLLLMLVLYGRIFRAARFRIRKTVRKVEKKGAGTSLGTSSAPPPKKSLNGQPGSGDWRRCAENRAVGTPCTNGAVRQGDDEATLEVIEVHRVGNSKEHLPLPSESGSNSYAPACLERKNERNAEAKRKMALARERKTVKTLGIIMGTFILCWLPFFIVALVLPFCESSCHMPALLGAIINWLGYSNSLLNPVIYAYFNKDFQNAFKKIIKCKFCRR
The data set is described as follows: [3H]8-OH-DPAT binding (5HT1A receptors), rat hippocampus membranes. As to conditions: rat hippocampus crude membranes, [3H]8-OH-DPAT 1.0 nM, 25°C 30 min; read-out: Receptor Binding IC50 (nM) 5-HT1a.

A word on the IC50: it is the concentration that inhibits the measured activity by half.

On to `COc1ccccc1N1CCN(CCCC(=O)c2cccc3c(=O)c(C)c(-c4ccccc4)oc23)CC1.CS(=O)(=O)O`, for which the LD50 at 168 h in data set [1] (ip, intraperitoneal, read-out: Acute Toxicity in Mice LD50 (mg/kg) i.p.) is over 500 mg/kg; in data set [1] (oral, read-out: Acute Toxicity in Mice LD50 (mg/kg) p.o.) it was over 2000 mg/kg. For `COc1ccccc1N1CC[N+]([O-])(CCCOc2cccc3c(=O)c(C)c(-c4ccccc4)oc23)CC1` [Example 43, 8-{3-[4-(2-methoxyphenyl)-1-oxo-1-piperazinyl]-propoxy}-3-methyl-4-oxo-2-phenyl-4H-1-benzopyran 1.75-hydrate], the IC50 on α₁ receptors is 166 nM; at 5HT1A receptors, over 1000 nM. Taken in the same sequence, the figures for `COc1ccccc1N1CCN(CCCSc2cccc3c(=O)c(C)c(-c4ccccc4)oc23)CC1` [Example 46, 8-{3-[4-(2-methoxyphenyl)-1-piperazinyl]-propylthio}-3-methyl-4-oxo-2-phenyl-4H-1-benzopyran] were 86 nM and 23 nM.

Take `COc1ccccc1N1CCN(CCCNC(=O)c2cccc3c(=O)c(-c4ccccc4)coc23)CC1` [Example 64, 8-{3-[4-(2-methoxyphenyl)-1-piperazinyl]-propylcarbamoyl}-3-phenyl-4-oxo-4H-1-benzopyran dimethanesulphonate]: the IC50 came to 40 nM on α₁ receptors and 11 nM on 5HT1A receptors. Turning to `Cc1c(-c2ccccc2)oc2c(C(=O)NCCCNCC3CCc4ccccc4C3=O)cccc2c1=O` (centres unmarked) [Example 65, 8-{3-[(3,4-dihydro-1-oxo-2H-naphthyl)-methylamino]-propylcarbamoyl}-3-methyl-4-oxo-2-phenyl-4H-1-benzopyran methanesulphonate], the IC50 at 5HT1A receptors was found to be 26 nM. Consider `COc1ccccc1N1CCN(CCCN(OC2CCCCO2)C(=O)c2cccc3c(=O)c(C)c(-c4ccccc4)oc23)CC1` (centres unmarked) [Example 68, 8-{N-(2-tetrahydropyranyloxy)-3-[4-(2-methoxyphenyl)-1-piperazinyl]-propylcarbamoyl}-3-methyl-4-oxo-2-phenyl-4H-1-benzopyran methanesulphonate hemihydrate], for which the IC50 on α₁ receptors stood at 29 nM; on 5HT1A receptors, 13 nM. For `COc1ccccc1N1CCN(CCCN(O)C(=O)c2cccc3c(=O)c(C)c(-c4ccccc4)oc23)CC1` [Example 71, 8-{N-hydroxy-3-[4-(2-methoxyphenyl)-1-piperazinyl]-propylcarbamoyl}-3-methyl-4-oxo-2-phenyl-4H-1-benzopyran methanesulphonate 0.25 H20] the same measures were 108 nM and 69 nM. For `COc1ccccc1OCCCNCCCNC(=O)c1cccc2c(=O)c(C)c(-c3ccccc3)oc12` [Example 74, 8-{3-[3-(2-methoxyphenoxy)-propylamino]-propylcarbamoyl}-3-methyl-4-oxo-2-phenyl-4H-1-benzopyran methanesulphonate hemihydrate] the same measures were 178 nM and 482 nM. For `CSc1ccccc1OCCNCCCNC(=O)c1cccc2c(=O)c(C)c(-c3ccccc3)oc12` [Example 75, 8-{3-[2-(2-methylthiophenoxy)-ethylamino]-propylcarbamoyl}-3-methyl-4-oxo-2-phenyl-4H-1-benzopyran methanesulphonate] the same measures were 147 nM and 15 nM. For `COc1ccccc1N1CCN(CC/C=C/c2cccc3c(=O)c(C)c(-c4ccccc4)oc23)CC1` [Example 78, (E)-8-{4-[4-(2-methoxyphenyl)-1-piperazinyl]-1-butenyl}-3-methyl-4-oxo-2-phenyl-4H-1-benzopyran], the IC50 stood at 18 nM at α₁ receptors and 116 nM on 5HT1A receptors. Taken in the same sequence, the figures for `COc1ccccc1N1CCN(CCNC(=O)Cc2cccc3c(=O)cc(-c4ccccc4)oc23)CC1` [Example 80, 8-{2-[4-(2-methoxyphenyl)-1-piperazinyl]-ethylcarbamoylmethyl}-4-oxo-2-phenyl-4H-1-benzopyran methanesulphonate hydrate] were 28 nM and 162 nM. Taken in the same sequence, the figures for `COc1ccccc1N1CCN(CCCN(C(C)=O)C(=O)c2cccc3c(=O)c(C)c(-c4ccccc4)oc23)CC1` [Example 81, 8-{N-acetyl-3-[4-(2-methoxyphenyl)-1-piperazinyl]-propylcarbamoyl}-3-methyl-4-oxo-2-phenyl-4H-1-benzopyran] were 13 nM and 81 nM. Taken in the same sequence, the figures for `COc1ccccc1N1CCN(CCCNC(=S)c2cccc3c(=O)c(C)c(-c4ccccc4)oc23)CC1` [Example 83, 8-{3-[4-(2-methoxyphenyl)-1-piperazinyl]-propylthiocarbamoyl}-3-methyl-4-oxo-2-phenyl-4H-1-benzopyran methanesulphonate] were 30 nM and 5 nM. Regarding `COc1ccccc1N1CCN(CCCCS(=O)(=O)c2cccc3c(=O)c(C)c(-c4ccccc4)oc23)CC1` [Example 84, 8-{4-[4-(2-methoxyphenyl)-1-piperazinyl]-butylsulphonyl}-3-methyl-4-oxo-2-phenyl-4H-1-benzopyran methanesulphonate . ¼ H₂O], the figures for the IC50 at α₁ receptors and on 5HT1A receptors were 5 nM and 2 nM, respectively.

`COc1ccccc1N1CCN(CCCNC(=O)c2cccc3c(=O)c(CO)c(-c4ccccc4)oc23)CC1` [Example 85, 8-{3-[4-(2-methoxyphenyl)-1-piperazinyl]-propylcarbamoyl}-3-hydroxymethyl-4-oxo-2-phenyl-4H-1-benzopyran. 0.4 ethanol]: the figures for the IC50 on α₁ receptors and at 5HT1A receptors were 16 nM and 14 nM, respectively. Taken in the same sequence, the figures for `COc1ccccc1N1CCN(CCCNC(=O)c2cccc3c(=O)cc(-c4ccccc4)oc23)CC1` [Example 86, 8-{3-[4-(2-methoxyphenyl)-1-piperazinyl]-propylcarbamoyl}-4-oxo-2-phenyl-4H-1-benzopyran methanesulphonate . ¼ H₂O] were 48 nM and 20 nM. Taken in the same sequence, the figures for `COc1ccccc1N1CCN(CCCNC(=O)c2cccc3c(=O)ccoc23)CC1` [Example 88, 8-{3-[4-(2-methoxyphenyl)-1-piperazinyl]-propylcarbamoyl}-4-oxo-4H-1-benzopyran methanesulphonate . 1.25 H₂O] were 216 nM and 11 nM. For `COc1ccccc1N1CCN(CCCNC(=O)c2cc([N+](=O)[O-])cc3c(=O)c(C)c(-c4ccccc4)oc23)CC1` [Example 93, 8-{3-[4-(2-methoxyphenyl)-1-piperazinyl]-propylcarbamoyl}-3-methyl-6-nitro-4-oxo-2-phenyl-4H-1-benzopyran] the same measures were 47 nM and 38 nM. As for `COc1ccccc1N1CCN(CCCNC(=O)c2cc(N)cc3c(=O)c(C)c(-c4ccccc4)oc23)CC1` [Example 94, 8-{3-[4-(2-methoxyphenyl)-1-piperazinyl]-propylcarbamoyl}-6-amino-3-methyl-4-oxo-2-phenyl-4H-1-benzopyran], the IC50 at α₁ receptors amounted to 39 nM; on 5HT1A receptors it was 66 nM. Turning to `COc1ccccc1N1CCN(CCCNC(=O)c2c(OC)ccc3c(=O)c(C)c(-c4ccccc4)oc23)CC1` [Example 98, 8-{3-[4-(2-methoxyphenyl)-1-piperazinyl]-propylcarbamoyl}-7-methoxy-3-methyl-4-oxo-2-phenyl-4H-1-benzopyran], the IC50 was found to be 103 nM at α₁ receptors and 12 nM at 5HT1A receptors. For `COc1ccccc1N1CCN(CCCNC(=O)c2cccc3c(=O)c(C)c(-c4ccc(C(F)(F)F)cc4)oc23)CC1` [Example 99, 8-{3-[4-(2-methoxyphenyl)-1-piperazinyl]-propylcarbamoyl}-3-methyl-4-oxo-2-(4-trifluoromethylphenyl)-4H-1-benzopyran methanesulphonate sesquihydrate] the same measures were 44 nM and 5 nM. As to `COc1ccccc1N1CCN(CCCNC(=O)c2cccc3c(=O)c(C)c(C)oc23)CC1` [Example 102, 8-{3-[4-(2-methoxyphenyl)-1-piperazinyl]-propylcarbamoyl}-2,3-dimethyl-4-oxo-4H-1-benzopyran], the IC50 on α₁ receptors amounted to 56 nM; at 5HT1A receptors, 18 nM.

For the molecule `COc1ccccc1N1CCN(CCCNC(=O)c2cccc3c(=O)c(C)c(C4CCCCC4)oc23)CC1` [Example 104, 8-{3-[4-(2-methoxyphenyl)-1-piperazinyl]-propylcarbamoyl}-2-cyclohexyl-3-methyl-4-oxo-4H-1-benzopyran], the IC50 at α₁ receptors turned out to be 9 nM; on 5HT1A receptors, 15 nM. Taken in the same sequence, the figures for `COc1ccccc1N1CCN(CCCNC(=O)c2cccc3c(=O)cc(-c4ccccc4)sc23)CC1` [Example 107, 8-{3-[4-(2-methoxyphenyl)-1-piperazinyl]-propylcarbamoyl}-4-oxo-2-phenyl-4H-1-benzothiopyran] were 37 nM and 16 nM.
